Reference: ChEMBL document CHEMBL6071165, “Design, synthesis and biological evaluation of plant-derived miliusol derivatives achieve TNBC profound regression in vivo” (Eur J Med Chem, 2024)

What was measured:
MDA-MB-231 [1] = assay: Antiproliferative activity against human MDA-MB-231 cells assessed as inhibition of cell proliferation incubated for 24 hrs by MTT assay; format: functional, cell-based; conditions: MDA-MB-231, 24 h
BT-549 [2] = assay: Antiproliferative activity against human BT-549 cells assessed as inhibition of cell proliferation incubated for 48 hrs by MTT assay; format: functional, cell-based; conditions: BT-549, 48 h
BT-549 [3] = assay: Potency index, ratio of miliusol IC50 to test compound IC50 for antiproliferative activity against human BT-549 cells assessed as inhibition of cell proliferation incubated for 48 hrs by MTT assay; format: functional
BT-549 [4] = assay: Antiproliferative activity against human BT-549 cells assessed as inhibition of cell proliferation incubated for 24 hrs by MTT assay; format: functional, cell-based; conditions: BT-549, 24 h
MDA-MB-231 [5] = assay: Antiproliferative activity against human MDA-MB-231 cells assessed as inhibition of cell proliferation incubated for 48 hrs by MTT assay; format: functional, cell-based; conditions: MDA-MB-231, 48 h
[6] = Potency index, ratio of miliusol IC50 to test compound IC50 for antiproliferative activity against human MDA-MB-231 cells assessed as inhibition of cell proliferation incubated for 48 hrs by MTT assay; format: functional
[7] = (§1) Selectivity ratio of IC50 for antiproliferative activity against human MCF-10A cells assessed as inhibition of cell proliferation incubated for 24 hrs by MTT assay to IC50 for antiproliferative activity against human MDA-MB-231 cells assessed as inhibition of cell proliferation incubated for 24 hrs by MTT assay; format: cell-based; conditions: MCF-10A cells versus MDA-MB-231 cells, read-out: Ratio IC50
[8] = as §1, with “BT-549” for “MDA-MB-231”; format: toxicity, cell-based; conditions: MCF-10A cells versus BT-549 cells, read-out: Ratio IC50
[9] = Antiproliferative activity against human MCF-10A cells assessed as inhibition of cell proliferation incubated for 48 hrs by MTT assay; format: toxicity, cell-based
[10] = as §1, with “48” for “24”, “BT-549” for “MDA-MB-231”; format: toxicity, cell-based; conditions: MCF-10A cells versus BT-549 cells, read-out: Ratio IC50
[11] = as §1, with “48” for “24”; format: cell-based; conditions: MCF-10A cells versus MDA-MB-231 cells, read-out: Ratio IC50
[12] = Antiproliferative activity against human MCF-10A cells assessed as inhibition of cell proliferation incubated for 24 hrs by MTT assay; format: toxicity, cell-based

SMILES	IC50 (MDA-MB-231 [1]) [nM]	IC50 (BT-549 [2]) [nM]	Ratio IC50 (BT-549 [3])	IC50 (BT-549 [4]) [nM]	IC50 (MDA-MB-231 [5]) [nM]	Ratio IC50 [6]	selectivity ratio at 24 h [7]	selectivity ratio at 24 h [8]	IC50 at 48 h [9] [nM]	selectivity ratio at 48 h [10]	selectivity ratio at 48 h [11]	IC50 at 24 h [12] [nM]
CC(C)=CCC/C(C)=C/[C@H]1OC(=O)C[C@]12C[C@H](OC(=O)c1csc(Br)n1)C=CC2=O	3430	620	5	5030	2060	–	–	–	–	–	–	–
CC(C)=CCC/C(C)=C/[C@H]1OC(=O)C[C@]12C[C@H](OC(=O)CNC(=O)OC(C)(C)C)C=CC2=O	1660	1140	2.7	2110	3200	1.5	–	–	–	–	–	–
CC(C)=CCC/C(C)=C/[C@H]1OC(=O)C[C@]12C[C@H](OC(=O)Cc1ccc(NC(=O)C(C)(C)C)cc1)C=CC2=O	1360	800	–	1750	570	–	–	–	–	–	–	–
CC(=O)O[C@H]1C(=O)[C@@]2(C)[C@H]([C@H](OC(=O)c3ccccc3)[C@]3(O)C[C@H](OC(=O)[C@H](O)[C@@H](NC(=O)c4ccccc4)c4ccccc4)C(C)=C1C3(C)C)[C@]1(OC(C)=O)CO[C@@H]1C[C@@H]2O [PACLITAXEL]	1720	50	–	280	450	–	0.19	1.18	90	1.8	0.2	330
CC(C)=CCC/C(C)=C/[C@H]1OC(=O)C[C@]12C[C@H](O)C=CC2=O	4190	3040	–	4850	4680	–	–	–	–	–	–	–
CC(C)=CCC/C(C)=C/[C@H]1OC(=O)C[C@]12C[C@H](OC(=O)CCC(=O)NCC1CC3C=CC1C3)C=CC2=O (stereo not given in full)	3330	1550	–	3310	1340	–	–	–	–	–	–	–
CC(C)=CCC/C(C)=C/[C@H]1OC(=O)C[C@]12C[C@H](OC(=O)c1cc3ccccc3n1C)C=CC2=O	2510	1220	–	10400	1340	–	–	–	–	–	–	–
CC(C)=CCC/C(C)=C/[C@H]1OC(=O)C[C@]12C[C@H](OC(=O)Cn1cnc3c(=O)n(C)c(=O)n(C)c31)C=CC2=O	2840	3470	–	5380	4420	–	–	–	–	–	–	–
CC(C)=CCC/C(C)=C/[C@H]1OC(=O)C[C@]12C[C@H](OC(=O)Cc1ccc(NC(=O)c3cccs3)cc1)C=CC2=O	1630	640	–	2240	460	–	–	–	–	–	–	–
C=CC(=O)Nc1ccc(CC(=O)O[C@@H]2C=CC(=O)[C@@]3(CC(=O)O[C@@H]3/C=C(\C)CCC=C(C)C)C2)cc1	4540	3110	–	8710	1620	–	–	–	–	–	–	–
CC(C)=CCC/C(C)=C/[C@H]1OC(=O)C[C@]12C[C@H](OC(=O)Cc1ccc(F)cc1Cl)C=CC2=O	3070	2140	–	4930	5070	–	–	–	–	–	–	–
CC(C)=CCC/C(C)=C/[C@H]1OC(=O)C[C@]12C[C@H](OC(=O)Cc1ccc(NC(=O)c3ccccc3)cc1)C=CC2=O	2220	370	–	390	730	–	–	–	–	–	–	–
CC(C)=CCC/C(C)=C/[C@H]1OC(=O)C[C@]12C[C@H](OC(=O)Cc1ccc(F)cc1)C=CC2=O	5000	2220	–	3030	7480	–	–	–	–	–	–	–
CC(C)=CCC/C(C)=C/[C@H]1OC(=O)C[C@]12C[C@H](OC(=O)Cc1ccc(NC(=O)[C@H](Cl)c3ccccc3)cc1)C=CC2=O	630	580	–	1040	420	–	–	–	–	–	–	–
COc1ccccc1C(=O)Nc1ccc(CC(=O)O[C@@H]2C=CC(=O)[C@@]3(CC(=O)O[C@@H]3/C=C(\C)CCC=C(C)C)C2)cc1	1290	670	–	1560	540	–	–	–	–	–	–	–
CC(C)=CCC/C(C)=C/[C@H]1OC(=O)C[C@]12C[C@H](OC(=O)Cc1ccc(NC(=O)C3CC3)cc1)C=CC2=O	1090	230	–	2300	560	–	–	–	–	–	–	–
COC(=O)C[C@@]1([C@H](O)/C=C(\C)CCC=C(C)C)C[C@H](O)C=CC1=O [(+)-MILIUSANE XVIII]	8140	2260	–	4210	4230	–	–	–	–	–	–	–
CCC/C=C/C(=O)O[C@@H]1C=CC(=O)[C@@]2(CC(=O)O[C@@H]2/C=C(\C)CCC=C(C)C)C1	43600	11000	–	19200	12400	–	–	–	–	–	–	–
CC(C)=CCC/C(C)=C/[C@H]1OC(=O)C[C@]12C[C@H](OC(=O)Cc1ccc(NC(=O)c3ccccc3Cl)cc1)C=CC2=O	960	840	–	2480	580	–	–	–	–	–	–	–
CC(C)=CCC/C(C)=C/[C@H]1OC(=O)C[C@]12C[C@H](OC(=O)Cc1ccc3c(c1)OCO3)C=CC2=O	2230	3380	–	6810	2770	–	–	–	–	–	–	–
CC(C)=CCC/C(C)=C/[C@H]1OC(=O)C[C@]12C[C@H](OC(=O)Cn1nnc3ccccc31)C=CC2=O	6350	3900	–	8310	2410	–	–	–	–	–	–	–
CC(C)=CCC/C(C)=C/[C@H]1OC(=O)C[C@]12C[C@H](OC(=O)Cc1ccc(Cl)cc1Cl)C=CC2=O	19000	8230	–	15600	35400	–	–	–	–	–	–	–
CC(C)=CCC/C(C)=C/[C@H]1OC(=O)C[C@]12C[C@H](OC(=O)Cc1cccs1)C=CC2=O	4820	2460	–	10100	4140	–	–	–	–	–	–	–
COc1cccc(OC)c1C(=O)Nc1ccc(CC(=O)O[C@@H]2C=CC(=O)[C@@]3(CC(=O)O[C@@H]3/C=C(\C)CCC=C(C)C)C2)cc1	1300	1450	–	2090	780	–	–	–	–	–	–	–
CC(C)=CCC/C(C)=C/[C@H]1OC(=O)C[C@]12C[C@H](OC(=O)/C=C/C=C/c1ccc3c(c1)OCO3)C=CC2=O	8850	2870	–	19400	1660	–	–	–	–	–	–	–
CC(=O)Nc1ccc(CC(=O)O[C@@H]2C=CC(=O)[C@@]3(CC(=O)O[C@@H]3/C=C(\C)CCC=C(C)C)C2)cc1	4730	4190	–	7010	2160	–	–	–	–	–	–	–
COC(=O)C[C@@]12C[C@@H](C=CC1=O)O[C@@H]2/C=C(\C)CCC=C(C)C	9540	980	–	5330	1910	–	–	–	–	–	–	–
CC(C)=CCC/C(C)=C/[C@H]1OC(=O)C[C@]12C[C@H](OC(=O)Cc1ccc(NC(=O)OC(C)(C)C)cc1)C=CC2=O	460	1320	–	2030	1030	–	–	–	–	–	–	–
CC(C)=CCC/C(C)=C/[C@H]1OC(=O)C[C@]12C[C@H](OC(=O)Cc1ccc(NC(=O)/C=C/c3ccccc3)cc1)C=CC2=O	850	220	–	990	440	–	–	–	–	–	–	–
